# From patent US11339130B1 (Blade Therapeutics, Inc., priority 2016, dated 2022)
# Experiments:
# [1] = biological target: T1, Human Calpain 1/NS1 (Homo sapiens, UniProt P07384); assay: Calpain inhibition continuous fluorescence (FRET) assay, Human Calpain 1/NS1; assay type: biochemical; conditions: read-out: Human Calpain 1/NS1 IC50
# T1 sequence (P07384 1-714): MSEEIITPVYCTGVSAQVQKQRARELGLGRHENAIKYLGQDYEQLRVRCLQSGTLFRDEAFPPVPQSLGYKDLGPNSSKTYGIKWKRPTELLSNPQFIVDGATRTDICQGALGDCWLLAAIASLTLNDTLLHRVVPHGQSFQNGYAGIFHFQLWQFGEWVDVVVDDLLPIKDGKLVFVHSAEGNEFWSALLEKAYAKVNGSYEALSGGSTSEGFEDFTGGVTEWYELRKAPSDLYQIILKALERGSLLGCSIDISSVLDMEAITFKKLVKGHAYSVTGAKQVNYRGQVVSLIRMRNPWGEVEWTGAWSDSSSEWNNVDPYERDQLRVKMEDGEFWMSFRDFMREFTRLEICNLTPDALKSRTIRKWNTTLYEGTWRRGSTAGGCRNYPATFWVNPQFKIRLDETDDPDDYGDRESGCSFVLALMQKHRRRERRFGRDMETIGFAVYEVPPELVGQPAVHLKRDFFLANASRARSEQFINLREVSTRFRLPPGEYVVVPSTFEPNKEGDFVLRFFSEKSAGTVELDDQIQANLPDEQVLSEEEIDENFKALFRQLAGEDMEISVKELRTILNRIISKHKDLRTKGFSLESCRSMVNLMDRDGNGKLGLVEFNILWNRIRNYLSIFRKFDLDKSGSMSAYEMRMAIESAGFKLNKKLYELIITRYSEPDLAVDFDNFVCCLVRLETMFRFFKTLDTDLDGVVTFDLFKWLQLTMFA
# T1 sequence (P04632 1-268 partner): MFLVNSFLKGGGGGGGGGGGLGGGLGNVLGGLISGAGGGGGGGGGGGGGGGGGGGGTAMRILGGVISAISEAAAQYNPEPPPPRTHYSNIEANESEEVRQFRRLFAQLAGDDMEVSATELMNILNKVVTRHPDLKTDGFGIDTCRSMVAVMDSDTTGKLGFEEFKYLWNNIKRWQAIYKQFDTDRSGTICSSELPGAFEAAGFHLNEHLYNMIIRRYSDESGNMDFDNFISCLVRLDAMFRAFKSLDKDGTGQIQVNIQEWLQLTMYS
# How it was run: (§1)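 Fluorescence increase from the cleaved 5-FAM/QXL 520 substrate, read at 490/520 nm, gave activity. Calcium was supplied with the substrate to activate the enzyme in situ after a 25C enzyme-inhibitor preincubation, and IC50s were fit from initial slopes.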
# [2] = biological target: T2, Human Calpain 2/NS1 (Homo sapiens, UniProt P17655); assay: Calpain inhibition continuous fluorescence (FRET) assay, Human Calpain 2/NS1; assay type: biochemical; conditions: read-out: Human Calpain 2/NS1 IC50
# T2 sequence (P17655 1-700): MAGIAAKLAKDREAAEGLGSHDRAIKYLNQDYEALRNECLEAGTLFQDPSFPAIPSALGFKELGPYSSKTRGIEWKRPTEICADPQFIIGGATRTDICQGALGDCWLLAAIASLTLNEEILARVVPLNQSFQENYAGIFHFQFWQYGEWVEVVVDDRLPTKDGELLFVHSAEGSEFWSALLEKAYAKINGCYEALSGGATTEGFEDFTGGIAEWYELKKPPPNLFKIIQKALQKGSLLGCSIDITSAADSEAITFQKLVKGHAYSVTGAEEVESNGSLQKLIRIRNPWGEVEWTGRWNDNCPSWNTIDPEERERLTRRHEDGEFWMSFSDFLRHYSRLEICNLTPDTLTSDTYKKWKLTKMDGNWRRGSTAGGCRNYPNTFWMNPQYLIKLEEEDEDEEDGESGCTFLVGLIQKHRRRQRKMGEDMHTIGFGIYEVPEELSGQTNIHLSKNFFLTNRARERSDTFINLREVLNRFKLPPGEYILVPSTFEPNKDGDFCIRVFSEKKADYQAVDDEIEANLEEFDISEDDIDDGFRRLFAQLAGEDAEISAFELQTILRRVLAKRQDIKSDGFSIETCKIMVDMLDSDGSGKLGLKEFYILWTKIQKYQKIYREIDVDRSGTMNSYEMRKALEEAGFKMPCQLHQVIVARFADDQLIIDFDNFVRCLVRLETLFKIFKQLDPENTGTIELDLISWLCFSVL
# T2 sequence (P04632 1-268 partner): T1 sequence (P04632 1-268 partner)
# How it was run: as §1
# [3] = biological target: T3, Human Calpain 9/NS1 (Homo sapiens, UniProt O14815); assay: Calpain inhibition continuous fluorescence (FRET) assay, Human Calpain 9/NS1; assay type: biochemical; conditions: read-out: Human Calpain 9/NS1 IC50
# T3 sequence (O14815 1-690): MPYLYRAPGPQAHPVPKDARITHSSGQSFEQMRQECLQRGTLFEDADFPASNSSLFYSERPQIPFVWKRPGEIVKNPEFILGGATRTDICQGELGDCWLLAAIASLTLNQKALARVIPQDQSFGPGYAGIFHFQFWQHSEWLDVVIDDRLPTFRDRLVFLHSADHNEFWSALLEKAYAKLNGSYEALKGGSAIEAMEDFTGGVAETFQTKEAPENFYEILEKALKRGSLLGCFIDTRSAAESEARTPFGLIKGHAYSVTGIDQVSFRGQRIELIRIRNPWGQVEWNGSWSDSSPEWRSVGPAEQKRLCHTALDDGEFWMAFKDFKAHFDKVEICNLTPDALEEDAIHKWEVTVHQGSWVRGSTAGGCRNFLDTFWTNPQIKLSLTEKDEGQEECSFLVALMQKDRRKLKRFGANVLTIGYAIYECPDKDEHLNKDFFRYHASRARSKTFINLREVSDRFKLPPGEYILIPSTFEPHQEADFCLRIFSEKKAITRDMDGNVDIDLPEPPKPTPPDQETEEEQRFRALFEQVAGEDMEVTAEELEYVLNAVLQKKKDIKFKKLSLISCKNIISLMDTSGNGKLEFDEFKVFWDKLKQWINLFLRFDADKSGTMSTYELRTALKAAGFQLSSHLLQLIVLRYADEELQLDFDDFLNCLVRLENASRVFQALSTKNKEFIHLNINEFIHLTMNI
# T3 sequence (P04632 1-268 partner): T1 sequence (P04632 1-268 partner)
# How it was run: as §1
# [4] = system: Calpain activity in SH-SY5Y cells (SBDP-150); assay: SH-SY5Y Spectrin western blot assay (SBDP-150 breakdown product, A23187-induced); assay type: cell-based; conditions: Homo sapiens; SH-SY5Y cells, A23187-induced SBDP-150, western blot; read-out: SH-SY5Y Spectrin IC50
# [5] = system: Calpain activity in SH-SY5Y cells; assay: SH-SY5Y + AMC fluorescence assay (Suc-LLVY-AMC substrate); assay type: cell-based; conditions: read-out: SH-SY5Y + AMC IC50
IC50 [1],IC50 [2],IC50 [3],IC50 [4],IC50 [5],Structure (SMILES)
< 3 µM,< 3 µM,< 3 µM,< 10 µM,> 25 µM,"Cc1cc(C(=O)NC(Cc2ccccc2)C(=O)C(N)=O)n(-c2ccc(C(F)(F)F)cn2)n1 (centres unmarked) [Compound 445, N-(4-amino-3,4-dioxo-1-phenylbutan-2-yl)-3-methyl-1-(5-(trifluoromethyl)pyridin-2-yl)-1H-pyrazole-5-carboxamide]"
< 3 µM,< 3 µM,< 3 µM,10 to 25 µM,10 to 25 µM,"Cn1cc(C(=O)NC(Cc2ccccc2)C(=O)C(N)=O)c(-c2ccc(F)cc2)n1 (centres unmarked) [Compound 447, N-(4-amino-3,4-dioxo-1-phenylbutan-2-yl)-3-(4-fluorophenyl)-1-methyl-1H-pyrazole-4-carboxamide]"
< 3 µM,< 3 µM,3 to 10 µM,10 to 25 µM,< 10 µM,"Cc1cc(C(=O)NC(Cc2ccccc2)C(=O)C(=O)NC2CC2)n(-c2cnccn2)n1 (centres unmarked) [Compound 454, N-(4-(cyclopropylamino)-3,4-dioxo-1-phenylbutan-2-yl)-3-methyl-1-(pyrazin-2-yl)-1H-pyrazole-5-carboxamide]"
3 to 10 µM,< 3 µM,> 10 µM,> 25 µM,< 10 µM,"Cc1cc(C(=O)NC(Cc2ccccc2)C(=O)C(=O)NC2CC2)n(-c2ncccn2)n1 (centres unmarked) [Compound 455, N-(4-(cyclopropylamino)-3,4-dioxo-1-phenylbutan-2-yl)-3-methyl-1-(pyrimidin-2-yl)-1H-pyrazole-5-carboxamide]"
< 3 µM,< 3 µM,< 3 µM,> 25 µM,< 10 µM,"Cc1cc(C(=O)NC(Cc2ccccc2)C(=O)C(=O)NC2CC2)n(-c2ccccn2)n1 (centres unmarked) [Compound 456, N-(4-(cyclopropylamino)-3,4-dioxo-1-phenylbutan-2-yl)-3-methyl-1-(pyridin-2-yl)-1H-pyrazole-5-carboxamide]"
< 3 µM,< 3 µM,< 3 µM,10 to 25 µM,< 10 µM,"Cn1cc(C(=O)NC(Cc2ccccc2)C(=O)C(=O)NC2CC2)c(-c2ccccc2)n1 (centres unmarked) [Compound 458, N-(4-(cyclopropylamino)-3,4-dioxo-1-phenylbutan-2-yl)-1-methyl-3-phenyl-1H-pyrazole-4-carboxamide]"
< 3 µM,< 3 µM,< 3 µM,10 to 25 µM,< 10 µM,"Cc1nc(-c2ccccc2)c(C(=O)NC(Cc2ccccc2)C(=O)C(=O)NC2CC2)o1 (centres unmarked) [Compound 459, N-(4-(cyclopropylamino)-3,4-dioxo-1-phenylbutan-2-yl)-2-methyl-4-phenyloxazole-5-carboxamide]"
< 3 µM,< 3 µM,< 3 µM,> 25 µM,> 25 µM,"CCCCC(NC(=O)c1oc(C)nc1-c1ccccc1)C(=O)C(=O)NC1CC1 (centres unmarked) [Compound 460, N-(1-(cyclopropylamino)-1,2-dioxoheptan-3-yl)-2-methyl-4-phenyloxazole-5-carboxamide]"
< 3 µM,< 3 µM,< 3 µM,< 10 µM,> 25 µM,"O=C(NC1CC1)C(=O)C(Cc1ccccc1)NC(=O)c1cnoc1-c1ccccc1 (centres unmarked) [Compound 461, N-(4-(cyclopropylamino)-3,4-dioxo-1-phenylbutan-2-yl)-5-phenylisoxazole-4-carboxamide]"
< 3 µM,< 3 µM,< 3 µM,< 10 µM,> 25 µM,"NC(=O)C(=O)C(CCc1ccccc1)NC(=O)c1nsnc1-c1ccccc1 (centres unmarked) [Compound 463, N-(1-amino-1,2-dioxo-5-phenylpentan-3-yl)-4-phenyl-1,2,5-thiadiazole-3-carboxamide]"
< 3 µM,< 3 µM,< 3 µM,< 10 µM,< 10 µM,"NC(=O)C(=O)C(Cc1ccc(F)cc1)NC(=O)c1nsnc1-c1ccccc1 (centres unmarked) [Compound 464, N-(4-amino-1-(4-fluorophenyl)-3,4-dioxobutan-2-yl)-4-phenyl-1,2,5-thiadiazole-3-carboxamide]"
< 3 µM,< 3 µM,< 3 µM,< 10 µM,> 25 µM,"CC(C)CC(NC(=O)c1nsnc1-c1ccccc1)C(=O)C(N)=O (centres unmarked) [Compound 465, N-(1-amino-5-methyl-1,2-dioxohexan-3-yl)-4-phenyl-1,2,5-thiadiazole-3-carboxamide]"
< 3 µM,< 3 µM,< 3 µM,< 10 µM,> 25 µM,"Cc1cc(C)cc(CC(NC(=O)c2nsnc2-c2ccccc2)C(=O)C(N)=O)c1 (centres unmarked) [Compound 466, N-(4-amino-1-(3,5-dimethylphenyl)-3,4-dioxobutan-2-yl)-4-phenyl-1,2,5-thiadiazole-3-carboxamide]"
< 3 µM,< 3 µM,< 3 µM,< 10 µM,> 25 µM,"CCCCC(NC(=O)c1nsnc1-c1ccccc1)C(=O)C(N)=O (centres unmarked) [Compound 467, N-(1-amino-1,2-dioxoheptan-3-yl)-4-phenyl-1,2,5-thiadiazole-3-carboxamide]"
< 3 µM,< 3 µM,< 3 µM,< 10 µM,> 25 µM,"CC(NC(=O)c1nsnc1-c1ccccc1)C(=O)C(N)=O (centres unmarked) [Compound 468, N-(4-amino-3,4-dioxobutan-2-yl)-4-phenyl-1,2,5-thiadiazole-3-carboxamide]"
< 3 µM,< 3 µM,< 3 µM,10 to 25 µM,< 10 µM,"CCn1cc(C(=O)NC(Cc2ccccc2)C(=O)C(N)=O)c(-c2ccccc2F)n1 (centres unmarked) [Compound 469, N-(4-amino-3,4-dioxo-1-phenylbutan-2-yl)-1-ethyl-3-(2-fluorophenyl)-1H-pyrazole-4-carboxamide]"
